# Test results published in patent publication US7101867B2, “Benzofuran derivatives, their production and use” (Takeda Pharmaceutical Company Limited, priority 1998, dated 2006).
# Test system: Human neuroblastoma SK-N-SH cells
# Test: Cytoprotection in human neuroblastoma SK-N-SH cells against a PI-3-kinase inhibitor, LY-294002
# Type: cell-based
# Details: test compound 1.0 μM with LY-294002 30 μM; survival by Alamarblue reduction one day after initiation; (A−B)/(C−B)×100
# Procedure: Cytoprotection in human neuroblastoma SK-N-SH cells against a PI-3-kinase inhibitor, LY-294002
# Human neuroblastoma SK-N-SH cells were purchased from American Type Cell Culture (ATCC). DMEM/F-12 culture medium and potassium/magnesium-free phosphate buffer saline (PBS(−)) were purchased from Nikken Biomedical Co., Ltd., N2 additives and EDTA solution from GIBCO BRL Company, fetal bovine serum (FCS) and a mixed solution of penicillin (5000 U/ml) and streptomycin (5 mg/ml) from BioWhittaker Inc., Alamarblue™ reagent from Wako Pure Chemical Industries Ltd., culture flasks from Falcon Company, collagen-coated 96-well multi-plates from Iwaki Glass Co., Ltd., and LY-294002 from Alexis Biochemicals, respectively. As for other reagents, commercially available guaranteed reagents were used.
# By using DMEM/F-12 culture medium which contains 5% FCS, 0.5% N2, 10 mM HEPES, and a 1% mixed solution of penicillin (5000 U/ml) and streptomycin (5 mg/ml), SK-N-SH cells were subcultured in a carbon dioxide incubator under a mixed gas atmosphere consisting of 10% carbon dioxide and 90% air. After being cultivated to a sub-confluent stage, the cells were detached by a PBS(−) solution containing 2.5 mM EDTA and seeded onto collagen-coated 96-well multi-plates in the proportion of 1.0×10^4 cells/100 μl/well. After cultivation for 24 hours, the cells thus prepared were used for the cytoprotection assay.
# (§1) There was removed 80 μl of the culture medium of SK-N-SH cells that was cultivated as described above on 96-wells, collagen-coated, multi-plates and thereto were added at the same time 40 μl each of LY-294002 of the final concentrations of 30 μM and each test compound the final concentrations of that was adjusted to be 1.0 μM, to initiate the cytotoxicity test. Hereupon, each test compound was used after adjusting the concentration to be 10 mM with dimethyl sulfoxide and LY-294002 was used after adjusting the concentration to be 100 mM with dimethyl sulfoxide, each of which was diluted prior to its use in the test.
# The survival activity of nerve cells that were still living one day after initiation of the cytotoxicity test was determined by the activity of the cells to reduce the Alamarblue™ reagent as an index. There was removed 20 μl of the culture medium and 20 μl of Alamarblue™ reagent was added. The amount of Alamarblue™ reagent reduced by the cells over the period of 4 hours was calorimetrically determined (measurement wave length: 570 nm; reference wave length: 600 nm) By using a plate reader (WAKO SPECTRAMAX 250 Microplate Reader). Cytoprotection activity was calculated according to the following equation. Cytoprotection activity of each compound=(A−B)/(C−B)×100(%) • A: The survival activity of the group consisting of a test compound and LY-294002 added • B: The survival activity of the group consisting of LY-294002 added • C: The survival activity of the control group
# The cytoprotection activity of each compound was obtained By using at least 4 wells for every dose of a test compound.
# Cytoprotection in Human Neuroblastoma SK-N-SH Cells Against a PI-3-kinase Inhibitor, LY-294002
# as §1, with “cytotoxicity assay.” for “cytotoxicity test.”
# The survival activity of nerve cells that were still living one day after initiation of the cytotoxicity test was determined by the activity of the cells to reduce the Alamarblue™ reagent as an index. […]
row,SMILES,Cytoprotection Activity (%)
1,"Cc1c(C)c2c(c(C)c1NC(=O)c1ccc(Cl)cc1)C(c1ccc(C(C)C)cc1)C(C)(C)O2 (stereo not shown) [Example 20b, 4-Chloro-N-[3-(4-isopropylphenyl)-2,2,4,6,7-pentamethyl-2,3-dihydro-1-benzofuran-5-yl]benzamide]",12.6%
2,"Cc1c(C)c2c(c(C)c1NC(=O)c1ccc3c(c1)OCO3)C(c1ccc(C(C)C)cc1)C(C)(C)O2 (stereo not shown) [Example 22b, N-[3-(4-Isopropylphenyl)-2,2,4,6,7-pentamethyl-2,3-dihydro-1-benzofuran-5-yl]-1,3-benzodioxol-5-carboxamide]",12.8%
3,"Cc1c(C)c2c(c(C)c1NC(=O)c1cccs1)C(c1ccc(C(C)C)cc1)C(C)(C)O2 (stereo not shown) [Example 24b, N-[3-(4-Isopropylphenyl)-2,2,4,6,7-pentamethyl-2,3-dihydro-1-benzofuran-5-yl]-2-thiophenecarboxamide]",16.4%
4,"COc1ccc(C(=O)Nc2c(C)c(C)c3c(c2C)C(c2ccc(C(C)C)cc2)C2(CCN(C)CC2)O3)cc1 (stereo not shown) [Example 52b, N-[3-(4-Isopropylphenyl)-1′,4,6,7-tetramethylspiro[benzofuran-2(3H),4′-piperidine]-5-yl]-4-methoxybenzamide]",16.4%
5,"Cc1ccc(C2c3c(C)c(-n4cc5cc6c(cc5c4)OCO6)c(C)c(C)c3OC2(C)C)cc1 (stereo not shown) [Example 14a, 6-[2,2,4,6,7-pentamethyl-3-(4-methylphenyl)-2,3-dihydro-1-benzofuran-5-yl]-6H-[1,3]dioxolo[4,5-f]isoindole]",26.6%
6,"COc1ccc(CNc2c(C)c(C)c3oc(C)c(-c4ccc(C(C)C)cc4)c3c2C)cc1 [Example 45b, 3-(4-isopropylphenyl)-N-(4-methoxybenzyl)-2,4,6,7-tetramethyl-1-benzofuran-5-amine]",20.6%
7,"COc1cc2c(cc1OC)CN(c1c(C)c(C)c3c(c1C)C(c1ccc(C)cc1)C(C)(C)O3)C2 (stereo not shown) [Example 6a, 5,6-dimethoxy-2-[2,2,4,6,7-pentamethyl-3-(4-methylphenyl)-2,3-dihydro-1-benzofuran-5-yl]isoindoline]",28.2%
